Experiment: Premix stability: percent retention of 25-hydroxy Vitamin D3 in stored feed premixes (Example 7)
Format: physicochemical
Settings: Basic and Vitamin Premixes, stored at 25° C. and 35° C. up to 3 months (FIGS. 6 and 7)
Protocol: Three premixes for use in animal feed were prepared having the following components in the following proportions by percent weight based on the total weight of the premix.
Each of these premix compositions was prepared using a microencapsulated oil of the present invention or a prior art beadlet containing 25-hydroxy Vitamin D3. In addition, a control formulation was prepared, in which Vitamin D3 was substituted for the 25-hydroxy Vitamin D3. Each of the premixes was stored at 25° C. and 35° C., for a length of time up to 3 months. The percent retention of the 25-hydroxy Vitamin D3 was determined at each time and temperature.

## C=C1CCC(O)C/C1=C/C=C1\CCCC2(C)C1CCC2C(C)CCCC(C)(C)O (stereo not shown) [25-hydroxy Vitamin D3]
  stability of 25-hydroxy Vitamin D3 (% retention) in premix: less than that of Vitamin D3
